Seven substances from patent publication US7262269B2, “Method for screening combinational bead library; ligands for cancer cells” (The Regents of University of California, priority 2001, dated 2007) can be followed below.

Test [1] deals with epithelial ovarian cancer cell line OVCAR-3. Nature of the test: cell-growth-on-bead assay, OVCAR-3. It counts as cell-based, human. Conditions: Example 4, cX2GX4GX6X7c library, peptide concentration on bead surface 20% of Example 3. The method, then: (§1) The ratio of cells to beads is preferably about 10:1, but can range from about 1:1 to 100:1. The suspension of cells 10 and beads 12 is mixed gently for sufficient time to assure contact of beads 12 with suspended cells 10. The culture plates are incubated in a tissue culture incubator at about 4° C. to about 37° C., preferably 37° C., for a period of about 24 to about 72 hours. The suspension of cells 10 and beads 12 may be kept still or mixed, either continuously or intermittently, during the incubation period.
After the incubation period, beads 12 are observed under a dissecting microscope. […] These beads 14 (referred to as “positive” beads) are removed from the culture plates. A tetrazolium dye that stains live, but not dead, cells can be used to facilitate the identification and removal of the positive beads. If a dye is used, all of the beads are removed after the incubation period and resuspended in fresh medium in new culture plates. The dye is added. The plates are then incubated in a tissue culture incubator at 25° C. to 37° C. for about one to four hours. Live cells 10 convert the dye to a colored metabolite, which results in beads 14 with attached cells appearing colored, allowing them to be easily distinguished from beads 16 without attached cells, which appear colorless, as shown in FIG. 1E. Other dyes that stain live cells can also be used. After positive beads 14 are removed from the plates, attached cells 10 are separated from the beads. This can be done with the addition of a chaotrophic agent, such as 8 M guanidine hydrochloride, or a protease, such as trypsin.
About 150,000 peptide beads were mixed with approximately one million suspended cells in 15 ml of culture medium and distributed into six 3-cm culture plates. The culture plates were agitated gently at about 100 rpm for about 10 minutes. The culture plates were then incubated in a tissue culture incubator at 37° C. for about 24 hours to about 72 hours.
A dissecting microscope was used to examine the beads at about 24, 48, and 72 hours. After about 24 to 72 hours, beads with a monolayer of cells were observed.
At the end of the incubation period, all of the beads were removed and resuspended in fresh medium in a new culture plate. An MTT ([3-(4,5-dimethylthiazol-2-yl)-2,5-diphenyl] tetrazolium bromide) (Sigma, St. Louis, Mo.) dye solution was added to each culture plate to a final concentration of 0.5 mg/ml. The plates were incubated in a tissue culture incubator at 37° C. for about two hours to allow the purple color to develop. Each purple-colored peptide bead was isolated and removed. The attached cells were separated from the beads with 8 M guanidine hydrochloride.
The amino acid sequence of each isolated peptide bead was determined using an automated Procise 494 protein sequencer (Applied Biosystems, Foster City, Calif.). Several consensus peptide sequences were determined, one of which was cNGRGEQc. This peptide was resynthesized on beads, which were then rescreened with the A549 cells using the assay of the invention.
The method as described in Example 1 was performed, except that a different combinatorial library was used and different types of epithelial cancer cells were used. The peptide library of Example 3 was used, except that the concentration of peptides on the surface of each bead was 20% of that used in Example 3, resulting in an increase in screening stringency.
The peptide library was screened with one of the following epithelial ovarian cancer cell lines: CaOV3, SKOV-3, ES-2 and OVCAR-3 (American Type Culture Collection).
As described in Example 1, after culturing for about 24 to 72 hours, beads with a monolayer of cells were observed. These positive beads were isolated and the amino acid sequence of each positive bead was determined, as described in Example 1.

In test [2] the test system is non-small-cell lung cancer cell line, A549. Kind of test: cell-growth-on-bead assay, A549. It counts as cell-based, human. Conditions: peptide resynthesized on beads, rescreened with A549 cells. How it is done:
The cell-growth-on-bead assay includes the following steps. A one-bead-one-compound combinatorial library is prepared. The library is preferably synthesized using the “split synthesis” approach described in Lam et al., “A new type of synthetic peptide library,” 82-84. The compounds of the library may be small molecules, peptides, or other types of molecules. An example of a suitable library is a peptide library containing cXXXXXXc peptides, where “c” is D-cysteine which provides intramolecular cyclization by disulfide bonding, and “X” is any L, D, unnatural, or modified amino acid. A suitable solid phase support, such as beads or discs made of polystyrene, agarose, acrylamide, glass, plastic, or paramagnetic substances, is used. Polystyrene beads have been found satisfactory. A standard synthetic solid phase peptide synthesis method, such as fluorenylmethyoxycarbonyl (Fmoc) chemistry or t-butyloxycarbonyl (Boc) chemistry, is used. […]
The chemical structure of the compound (i.e. ligand) on each isolated positive bead 14 is then determined. If the combinatorial library used was a peptide library, then the amino acid sequence of the ligand is preferably determined with an automated protein sequencer, such as the Procise 494 (Applied Biosystems, Foster City, Calif.). Alternatively, the peptide can be released via a cleavable linker and the amino acid sequence determined by mass spectroscopy. […]

Test [3] has as its system non-malignant bronchoepithelial cell line, HBE-1. Nature of the test: cell-growth-on-bead assay, HBE-1. Format: cell-based. Conditions: HBE-1 cells. The method, then:
as §1
After the incubation period, beads 12 are observed under a dissecting microscope. […] These beads 14 (referred to as “positive” beads) are removed from the culture plates. A tetrazolium dye that stains live, but not dead, cells can be used to facilitate the identification and removal of the positive beads. If a dye is used, all of the beads are removed after the incubation period and resuspended in fresh medium in new culture plates. The dye is added. The plates are then incubated in a tissue culture incubator at 25° C. to 37° C. for about one to four hours. Live cells 10 convert the dye to a colored metabolite, which results in beads 14 with attached cells appearing colored, allowing them to be easily distinguished from beads 16 without attached cells, which appear colorless, as shown in FIG. 1E. Other dyes that stain live cells can also be used. […]

For c-Nle-G-Nle-G-Tyr(3-NO2)-L-c, the “identified as ligand (positive bead with monolayer of cells)” value (“identified as ligand” for short) in test [1] is on record as “identified”.
The same measure, in the same setting: for c-Tyr(3-NO2)-G-F-G-(Pal-3D)-HoSer-c the value was “identified”; for c-d-G-HoCit-G-T-Nva-c, “identified”.
Consider c-d-G-Nle-G-1-G-c, for which the “identified as ligand” value in test [1] was “identified”.
Still for that read-out and setting: in the case of c-d-G-Phe(3-C l)-G-T-Y-c it was “identified”.
With c-d-G-Tyr(3-NO2)-G-Aic-Q-c, the “identified as ligand” value in test [1] is “identified”.
Regarding cNGRGEQc, the “beads with this sequence exhibiting cell attachment and growth on their surfaces” value in test [2] is “Virtually all”. Besides, the “peptide beads on which cell growth was observed” value in test [3] is 10%.
